“Also recorded” adds a separate entry of the source.
Columns and labels:
FRα (KB) = target: T1, FRα (KB) (Homo sapiens, UniProt P15328); test: 3H-EC17 cell-based radioligand binding assay on KB cells; details: 2 h at 37° C.
T1 construct: endogenous in cells; host or cells: KB cells
Protocol: FIG. 10, Panel A: Kd values of ^3H-EC17 uptake by FR+ target cells after a 2 hour incubation at 37° C. (calculated from the numbers of molecules bound per cell). Panel B: Kd value of ^3H^−EC17 uptake by E2-CAR-T cells (˜24% EGFRt+, ˜95:5 CD8/CD4 ratio) after a 2 hour incubation at room temperate (calculated from total cell-associated radioactivity, DPM).
The bispecific affinities of EC17 CAM (a CAM is equivalent to a “bridge” or the “compound” in this application) were assessed using ^3H-EC17 in cell-based radioligand binding assays. […] The whole cell lysates were quantitated for the level of radioactivity and cellular protein content by standard Pierce BCA protein assay. The number of ^3H-EC17 molecules bound per cell was calculated to determine the dissociation constants (Kd) for FRα (KB) and FRβ (CHO-β) respectively (FIG. 10).
The EC17 has already been tested in the clinic for immunotherapy and optical imaging purposes. To directly quantify its bispecific binding affinities, ^3H-EC17 was synthesized and radioligand binding assays were carried out on KB and CHO-β cell lines representing FRα+ and FRβ+ target cells, respectively, and on unsorted EGFRt CAR-T cells representing the effector cells.

THP1-FRβ xenografts = test: THP1-FRβ AML intravenous xenograft, E2 CAR-T cells plus EC17; format: in vivo, NSG mice
HOS-FRα xenografts = test: HOS-FRα osteosarcoma subcutaneous xenograft, E2 CAR-T cells plus EC17; format: in vivo, NSG mice
Text: Panel A: Schematic diagram to show dose scheduling of CAR-T cells (˜6 million, day 0) plus EC17 in NSG mice with 3-day-old subcutaneous HOS-FRα xenografts (n=5). Starting 3 days after CAR-T cell injection (6 days after tumor implant), 3 cycles of EC17 M/Th/M […], i.e. on days 3/6/10, 17/20/24, and 31/34/38. Panel B: Measurements of tumor volumes and change in body weights. Due to tumor progression, five mice received CAR-T cells only (no EC17) were euthanized on days 23-31, and five EC17 treated mice were euthanized on days 33 (2 mice) and 47 (3 mice), respectively. Panel C: Flow cytometric analysis of CAR-T cells (human CD3ε+EGFRT+) PER 100 μL OF WHOLE BLOOD PLOTTED ON A LOGARITHMIC SCALE (LEFT) AND TUMOR-infiltrating CAR-T cells at the time of euthanasia (right).
HOS-FRα (i.e. HOS-143b-LV-FRα) is a subclone of HOS-143B (ATCC CRL-8303) stably transfected with human FRα. HOS-143B was originally derived from a […] with osteosarcoma. The tumor cells were grown in folate-deficient RPMI 1640 with 5% FBS at 37° C. in a 5% CO2 humidified atmosphere. For the in-vivo study, tumor cells were inoculated subcutaneously at 1×10^6 cells per animal.
EGFRt-sorted anti-FITC E2 scFv-CAR T cells were frozen in a T-cell freezing medium. Upon arrival, vials of frozen CAR-T cells were immediately stored at −80° C. The CAR-T cells were quickly thawed at 37° C., washed twice with PBS, and used for animal injection at 6 million viable EGFRt+ E2 CAR-T cells (CD4/CD8 at ˜1:1) per animal. A small aliquot was taken on the day infusion for flow cytometric analysis of E2-CAR T-cell phenotypes.
EC17 dosing solutions were prepared when dosing began by weighing appropriate amounts of each compound, reconstituting in PBS, pH 7.4, sterile filtering the drug solution through a 0.22 μm PVDF syringe filter, and freezing aliquots for each day of dosing at −20° C.
All EC17 doses were given towards the end of day (3-4 PM) to allow potential CRS (cytokine release syndrome) to develop overnight. On the following morning, animals were scored according to a CRS grading system (see below).
Tumor growth, body weight, and overall assessment: Tumor sizes were monitored 2-3 times/week and body weight measured 2-3 times/week. On the days immediately after any EC17 dose, body weight measurement was taken daily and attention was given to gross animal morphology and behavior.
Euthanasia: Euthanasia was performed when mice had lost ≥20% of their weight, when tumors reached ≥1500 mm^3. Euthanasia was also performed if mice lost a lot of weight in a short duration (e.g., due to severe head-tilt), or when they approached moribund conditions per CRS grading system. • EC17 intra-host dose escalation treatment (3 cycles). See FIG. 16. • Antitumor activity (N=5)
All animal care and use were performed according to NIH guidelines and in compliance with protocols approved by the Purdue University Animal Use and Care Committee. Female 4 to 5-week-old NOD/SCID gamma (NSG™) mice (stock number: 005557) were purchased from The Jackson Laboratory (Bar Harbor, ME). Unless specifically indicated, all animals were maintained on a FA-deficient diet (TestDiet, St. Louis, MO) upon arrival and throughout the study. To establish subcutaneous xenografts, MDA-MB-231 and HOS-FRα were implanted in the right flank region at 2.5×10^6 and 1×10^6 cells per animal, respectively. […] Subcutaneous tumors were measured 2-3 times per week with a caliper and calculated using the ellipsoidal formula (length×width^2)/2. […]

T1 sequence (P15328 25-234): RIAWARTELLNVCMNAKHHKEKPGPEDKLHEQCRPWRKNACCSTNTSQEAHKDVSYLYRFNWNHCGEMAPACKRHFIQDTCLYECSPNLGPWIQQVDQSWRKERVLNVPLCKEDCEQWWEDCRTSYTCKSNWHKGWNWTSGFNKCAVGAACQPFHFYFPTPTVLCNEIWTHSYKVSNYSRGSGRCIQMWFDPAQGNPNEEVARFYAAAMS

For Nc1nc2ncc(CNc3ccc(C(=O)N[C@@H](CCC(=O)NCCNC(=S)Nc4ccc(-c5c6ccc(=O)cc-6oc6cc(O)ccc56)c(C(=O)O)c4)C(=O)O)cc3)nc2c(=O)[nH]1 [EC17, FA-(γ)-ethylenediamine-FITC], the Kd (FRα (KB)) was 1.7 nM, the non-liver macrometastases (THP1-FRβ xenografts; EC17 M/Th/M dose escalation at a slow pace per cycle) was “failed to control the non-liver macrometastases” and the body weight loss (THP1-FRβ xenografts; ~6 million E2 CAR-T + EC17 M/Th/M dose escalation, 6-day break (Cohort 5)) was “little body weight loss during the first two cycles; also recorded: very mild body weight loss”. For the same compound, the “tumor volume (antitumor activity)” value (HOS-FRα xenografts; 6 million E2 CAR-T cells + EC17 5/100/1000 nmol/kg, M/Th/M (Cohort 2, FIG. 4)) was “significant tumor regression”, the “body weight loss or CRS” value (HOS-FRα xenografts; 6 million E2 CAR-T cells + EC17 slow dose escalation M/Th/M (Cohort 2, FIG. 4)) was “without body weight loss or CRS; also recorded: No body weight loss or symptoms of cytokine release syndrome (CRS) were observed” and the “day of euthanasia due to tumor progression” value (HOS-FRα xenografts; five EC17 treated mice, EC17 M/Th/M dose escalation) was 33 (2 mice) and 47 (3 mice) days. For the same compound, the “CRS or body weight loss” value (HOS-FRα xenografts; ~6 million E2-CAR-T cells + EC17 5/10/100, 5/30/300, 5/50/500 nmol/kg Cycles 1-3, M/Th/M (FIG. 14)) was “no CRS or body weight loss” and the tumor growth (HOS-FRα xenografts; ~6 million E2-CAR-T cells + EC17 5/10/100, 5/30/300, 5/50/500 nmol/kg Cycles 1-3, M/Th/M, 6-day break (FIG. 14)) was “significant delay in tumor growth; also recorded: stopped responding to treatment in Cycle 3”.
